Data from patent publication US20200055848A1, “FURANONE DERIVATES AND METHODS OF USE THEREOF” (CARNA BIOSCIENCES, INC., priority 2016, published 2020).
Where “and” joins values, the source holds several entries; their conditions need not be identical. Equal entries are not always repeated.

Legend:
[1] = In vitro metabolic stability, mouse liver microsomes; type: in vitro ADME; conditions: for MLM % (remaining % of parent compound): 30 min treatment of mouse liver microsomes
Experimental: (§1) NADPH regeneration system (13 mM NADP, 33 mM Glucose-6-phospate, 33 mM MgCl2, and 4 U/mL of Glucose-6-phosphate dehydrogenase) and liver microsomes (1 mg/mL of HLM (BD Gentest, lot 18888) or MLM (BD Gentest, lot 31197)) in 0.1 M phosphate buffer (pH 7.4) were pre-incubated separately at 37° C. for 20 min before mixing with 1:4 ratio. 50 μL of the mixed solution was added to 50 μL of the test compound (2 μM) to initiate the reaction at 37° C. (final conc. 1 μM test compound, 0.4 mg/mL liver microsomes, and 1.3 mM NADPH). After 30 min, the reactions were stopped by adding 300 μL of cold acetonitrile. For 0 min samples, ice-cold acetonitrile (with system suitability standard) was treated before mixing the test compound and microsomes. The sample were vortexed well and then centrifuged at 3500 rpm at 15° C. for 20 min. 110 μL of supernatant was mixed with 110 μL of water and quantitated by LC-MS/MS workstation (Shimazu Corp.).

[2] = Stability of the ethyl ester to hydrolysis; type: physicochemical
Experimental: Because the ester was expected to form important hydrogen bond with Lys90, an SAR study for the ester group was performed (Table 2). […] Generally esters are labile and can be easily hydrolyzed to the corresponding carboxylic acid. To our surprise, the ethyl ester of 3 was very stable even under strong basic conditions, and it required an extremely strong basic condition (50% w/v KOH aq., reflux) to hydrolyze this ester.
The general procedure for the replacement of R^2 by various groups is shown in Scheme 2. Methyl ester 8 was obtained analogously to ethyl ester 3 from the furanone intermediate 39 which was prepared from methyl 4-chloroacetoacetate 37 and phenyl isocyanate 38 (Scheme 2A). Compound 9 (Scheme 2B) was obtained by hydrolysis of compound 3 under extremely strong basic condition (50% w/v KOH aq., reflux). […] The amide analogs (10-12) were prepared directly by aminolysis of ethyl ester 3 with appropriate amines (Scheme 2C).

[3] = In vitro metabolic stability, human liver microsomes; type: in vitro ADME; conditions: for HLM % (remaining % of parent compound): 30 min treatment of human liver microsomes
Experimental: as §1

[4] = molecular target: T1, human Cdc7/human ASK complex protein (Homo sapiens, UniProt O00311); assay: Cdc7/ASK enzymatic assay; type: biochemical; conditions: 5 μM ATP; mean of duplicated assays; read-out: Cdc7 IC50
T1 construct: purchased Carna Biosciences, Inc
Experimental: Measurement of Cdc7 kinase activity was carried out using MSA assay kit (QuickScout™ Screening Assist Kit, Carna Biosciences, Inc.). Assay buffer (20 mM HEPES, 0.01% Triton X-100™, 2 mM dithiothreitol, pH 7.5) was used to prepare a substrate mixture solution comprising 4 μM of kinase-reaction substrate (FITC-labeled MCM2 peptide), 40 mM MgCl2, and 4 times concentrations of final targeted ATP (5, 100, and 1,000 μM). The enzyme supplied in the kit (human Cdc7/human ASK complex protein) was diluted into the assay buffer to prepare a 7 nM solution (enzyme solution). The compound stock solution was prepared by diluting a 10 mM DMSO solution into the assay buffer (final 4% DMSO). The kinase reaction was performed by mixing of 5 μL of the compound solution, 5 μL of the substrate mixture solution, and 10 μL of the enzyme solution in a 384-well plate. For the pre-incubation assay, the compound solution and the enzyme solution were pre-mixed and incubated at ambient temperature for 30 min before adding into the substrate mixture solution to start enzymatic reaction. After the reaction at 25° C. for 5 hours, 60 μL of the termination buffer (supplied in the kit) was added to stop the reaction. The phosphorylation of substrate was measured using a LabChip EZ Reader II system (Caliper Life Sciences). The percent inhibition (%) by a tested compound was calculated according to the following formula:
Percent inhibition (%)=(1−(C−A)/(B−A))×100
A represents P/(P+S) for a blank well, B represents P/(P+S) for a solvent well, and C represents P/(P+S) for a compound-added well. S: the peak heights of the separated substrate, P: phosphorylated substrate.
The IC50 value of tested compound was calculated by regression analysis of the percent inhibition values versus the (logarithmic) concentration of the tested compound.

[5] = molecular target: T1, human Cdc7/human ASK complex protein; assay: Cdc7/ASK enzymatic assay; type: biochemical; conditions: 5 μM ATP versus 10 μM ATP as printed

T1 sequence (O00311 whole entry): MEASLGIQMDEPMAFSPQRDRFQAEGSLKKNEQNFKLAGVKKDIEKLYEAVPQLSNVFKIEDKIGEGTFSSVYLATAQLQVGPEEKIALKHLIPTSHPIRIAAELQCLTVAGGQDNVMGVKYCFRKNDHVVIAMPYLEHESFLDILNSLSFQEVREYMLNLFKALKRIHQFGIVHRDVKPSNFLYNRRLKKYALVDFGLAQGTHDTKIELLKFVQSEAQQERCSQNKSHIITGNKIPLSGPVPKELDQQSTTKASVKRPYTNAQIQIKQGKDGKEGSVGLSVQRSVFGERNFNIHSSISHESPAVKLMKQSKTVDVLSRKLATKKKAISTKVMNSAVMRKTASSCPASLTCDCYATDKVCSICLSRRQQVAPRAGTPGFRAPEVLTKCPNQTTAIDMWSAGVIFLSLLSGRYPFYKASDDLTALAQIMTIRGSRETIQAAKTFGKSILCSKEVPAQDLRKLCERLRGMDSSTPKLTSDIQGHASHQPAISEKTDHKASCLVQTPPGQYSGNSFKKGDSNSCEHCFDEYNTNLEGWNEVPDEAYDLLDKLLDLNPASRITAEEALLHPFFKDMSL
T1 sequence (Q9UBU7 whole entry partner): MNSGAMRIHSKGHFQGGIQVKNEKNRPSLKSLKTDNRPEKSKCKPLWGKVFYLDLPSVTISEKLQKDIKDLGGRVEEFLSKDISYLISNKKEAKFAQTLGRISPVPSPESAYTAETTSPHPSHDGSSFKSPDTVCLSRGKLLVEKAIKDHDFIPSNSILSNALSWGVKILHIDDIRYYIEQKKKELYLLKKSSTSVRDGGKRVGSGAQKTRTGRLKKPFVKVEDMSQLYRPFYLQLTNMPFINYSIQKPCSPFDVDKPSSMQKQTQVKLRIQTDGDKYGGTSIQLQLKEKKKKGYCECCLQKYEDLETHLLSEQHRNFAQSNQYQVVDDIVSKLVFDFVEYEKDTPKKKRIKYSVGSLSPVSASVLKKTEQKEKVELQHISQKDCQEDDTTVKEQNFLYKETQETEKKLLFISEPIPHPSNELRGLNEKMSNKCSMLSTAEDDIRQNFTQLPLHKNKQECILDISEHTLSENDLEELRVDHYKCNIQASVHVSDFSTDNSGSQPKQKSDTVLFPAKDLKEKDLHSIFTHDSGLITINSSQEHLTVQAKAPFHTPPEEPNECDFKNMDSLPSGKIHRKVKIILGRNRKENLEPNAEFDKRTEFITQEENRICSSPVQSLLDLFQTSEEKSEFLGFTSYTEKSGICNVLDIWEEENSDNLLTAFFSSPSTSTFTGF

SMILES | MLM % (remaining % of parent compound) [1] [%] | metabolic stability in mice (in words) ([1]; mouse) | stability of the ethyl ester ([2]; conventional ester hydrolysis conditions: 2N HCl aq./EtOH, 60° C. or 2N NaOH aq./EtOH, 60° C.) | stability of the ethyl ester ([2]; strong basic conditions, hydrolysis required 50% w/v KOH aq., reflux) | HLM % (remaining % of parent compound) [3] [%] | metabolic stability in human liver microsome (in words) ([3]; human) | IC50 [4] | fold stronger inhibitory potency at 5 μM ATP than inhibition at 10 μM ATP concentration [5] [fold]
CCOC(=O)C1=C(Nc2ccccc2)OC(=Cc2c[nH]c3ncccc23)C1=O [Compound 3, Ethyl 5-((1H-pyrrolo[2,3-b]pyridin-3-yl)methylene)-4-oxo-2-(phenylamino)-4,5-dihydrofuran-3-carboxylate] | 7.9 | rapidly metabolized | very stable | very stable | 23 | moderate metabolic stability | 3.3 nM and 3.8 nM | 21
CCOC(=O)C1=C(Nc2ccccc2C)OC(=Cc2c[nH]c3ncccc23)C1=O [Compound 21, Ethyl 5-((1H-pyrrolo[2,3-b]pyridin-3-yl)methylene)-4-oxo-2-(o-tolylamino)-4,5-dihydrofuran-3-carboxylate] | 24 |  |  |  | 53 |  | 3.8 nM | 
CCOC(=O)C1=C(Nc2ccccc2F)OC(=Cc2c[nH]c3ncccc23)C1=O [Compound 19, Ethyl 5-[(1H-pyrrolo[2,3-b]pyridin-3-yl)methylene]-2-[(2-fluorophenyl)amino]-4-oxo-4,5-dihydrofuran-3-carboxylate] | 10 |  |  |  | 30 |  | 2.4 nM | 
CCOC(=O)C1=C(Nc2ccc(F)cc2F)OC(=Cc2c[nH]c3ncccc23)C1=O [Compound 23, Ethyl 5-((1H-pyrrolo[2,3-b]pyridin-3-yl)methylene)-2-((2,4-difluorophenyl)amino)-4-oxo-4,5-dihydrofuran-3-carboxylate] | 12 |  |  |  | 57 |  | 2.5 nM | 
